According to patent publication US20160346249A1 (priority 2012, published 2016):
Where two headings read alike, the source gives them in different places.

Experiments:
[1] = Single-dose (25 mg) gender study in males and females (DOV-947-005); assay type: in vivo, human; settings: for AUC(0-inf) / AUC(0-t) / Cmax / Tmax / half-life: human, in vivo, single oral dose 25 mg
[2] = Rabbit developmental toxicity study with toxicokinetics; settings: female, New Zealand white, in vivo; for AUC(0-t) / Cmax / Tmax: pregnant rabbits; for AUC(0-t): GD 20, read-out: AUC0-24; for Cmax / Tmax: GD 20
Method: For the toxicology assessment, 27-33 per rabbits per group were dosed.
On GD 29, a laparohysterectomy was performed on each surviving female.

[3] = 26-week rat toxicity and toxicokinetic study; assay type: in vivo; settings: for Tmax / AUC(0-t) / Cmax: po; for AUC(0-t): read-out: AUC0-24; for mean body weight lower than control: end of 4-week recovery; for mean cumulative body weight gain lower: end of treatment
Method: A portion of the animals from each group was maintained for an additional 4-week post-treatment recovery period.
For toxicology assessment, groups comprised thirty animals of each gender. Assessments included clinical observations, body weight, and food consumption measures noted periodically during the study. […] Ophthalmic examinations were performed during Weeks 1 and 13. […] In addition, the liver, vagina, and ovaries were identified as potential target tissues and were examined microscopically for all animals from all groups at the primary and recovery necropsies. […] 10 animals of each gender from each group were held to week 30 for a 4-week post-treatment recovery period.
For the toxicokinetic studies, there were ten animals of each gender in each group.

[4] = tested on: Salmonella typhimurium and Escherichia coli tester strains; experiment: Bacterial reverse mutation assay (Ames); assay type: cell-based; settings: up to 5000 μg/plate, with and without S9
[5] = 12-month dog toxicity and toxicokinetic study; assay type: in vivo; settings: female, beagle, dog, plasma, po, 2 mg/kg/day, females, 2 mg/kg/day, Day 0
Method: Blood samples were collected on Days 0, 91, 181, 268 and 358 from up to 4 animals/gender/group. Plasma samples collected on Days 91, 181, 268, as well as all plasma samples collected from the control group were not evaluated.
For toxicology assessment four dogs of each gender were included in each group. Assessments included clinical observations, body weight, and food consumption measures which were recorded periodically during the study. Ophthalmic examinations were performed during Weeks 1, 12, 25, 38, 51, and 55 (recovery period). Electrocardiograms were recorded during Weeks 2, 12, 25, 38, and 51. Clinical pathology evaluations (hematology, serum chemistry, and urinalysis) were performed during Weeks 1, 12, 25, 38, 52, and 56 (recovery period). At termination, complete necropsies were performed on all dogs and selected organs were weighed. Selected tissues from the control and 20 (15) mg/kg/day group animals and animals euthanized in extremis were examined microscopically. Sections of livers from dogs in the control and 20 (15) mg/kg/day groups were collected at both the primary and 4-week post-treatment recovery necropsies for assessment of drug metabolism enzyme (microsomal cytochrome P450) activity.

[6] = female, Crl:CD(SD)IGS BR, rat, in vivo, 8 mg/kg/day, females, 8 mg/kg/day, Day 0
[7] = female, Crl:CD(SD)IGS BR, rat, in vivo, 25 mg/kg/day, females, 25 mg/kg/day, Day 0
[8] = female, Crl:CD(SD)IGS BR, rat, in vivo, 25 mg/kg/day, females, 25 mg/kg/day, Day 177
[9] = male, Crl:CD(SD)IGS BR, rat, in vivo, 8 mg/kg/day, males, 8 mg/kg/day, Day 0
[10] = male, Crl:CD(SD)IGS BR, rat, in vivo, 8 mg/kg/day, males, 8 mg/kg/day, Day 177
[11] = male, Crl:CD(SD)IGS BR, rat, in vivo, 25 mg/kg/day, males, 25 mg/kg/day, Day 0
[12] = male, Crl:CD(SD)IGS BR, rat, in vivo, 25 mg/kg/day, males, 25 mg/kg/day, Day 177

Compound: Clc1ccc([C@]23CNC[C@H]2C3)cc1Cl [amitifadine, (+)-1-(3,4-dichlorophenyl)-3-azabicyclo[3.1.0]hexane]
- QTc prolongation ([1]; 25 mg): no sustained or significant prolongation of QTc
- gender difference in Cmax or AUC ([1]; 25 mg): no difference in either Cmax or AUC values between the two sexes
- subjects with orthostatic hypotension ([1]; all subjects, 25 mg): 30%
- AUC(0-inf) ([1]; female, Females (N = 38)): 1590 ng·h/mL
- AUC(0-t) ([1]; female, Females (N = 38)): 1490 ng·h/mL
- Cmax ([1]; female, Females (N = 38)): 291 ng/mL
- Tmax ([1]; female, Females (N = 38)): 1.38 h
- half-life ([1]; female, Females (N = 38)): 3.73 h
- subjects with orthostatic hypotension ([1]; females, 25 mg): 28.9%
- AUC(0-inf) ([1]; male, Males (N = 32)): 1440 ng·h/mL
- AUC(0-t) ([1]; male, Males (N = 32)): 1360 ng·h/mL
- Cmax ([1]; male, Males (N = 32)): 273 ng/mL
- Tmax ([1]; male, Males (N = 32)): 1.27 h
- half-life ([1]; male, Males (N = 32)): 3.41 h
- subjects with orthostatic hypotension ([1]; males, 25 mg): 31.3%
- AUC(0-t) ([2]; oral, 20 mg/kg/day): 19200 ng·h/mL
- NOAEL ([2]; po, oral gavage GD 7-20, read-out: NOAEL for developmental toxicity): 20 mg/kg/day
- NOAEL ([2]; po, oral gavage GD 7-20, read-out: NOAEL for maternal toxicity): 10 mg/kg/day
- Cmax ([2]; po, 3 mg/kg/day): 309 ng/mL
- Tmax ([2]; po, 3 mg/kg/day): 1 h
- AUC(0-t) ([2]; po, 3 mg/kg/day): 1320 ng·h/mL
- Cmax ([2]; po, 10 mg/kg/day): 1090 ng/mL
- Tmax ([2]; po, 10 mg/kg/day): 1 h
- AUC(0-t) ([2]; po, 10 mg/kg/day): 5860 ng·h/mL
- Cmax ([2]; po, 20 mg/kg/day): 3200 ng/mL
- Tmax ([2]; po, 20 mg/kg/day): 1 h
- NOAEL at 26 weeks ([3]; both sexes, Crl:CD(SD)IGS BR, rat, in vivo, oral gavage, 26 weeks): 8 mg/kg/day
- exposure in female vs male rats ([3]; equivalent dosages): ≤ 2 fold
- liver metabolic enzyme induction ([3]; female rats, 25 mg/kg/day, 26 weeks): inducer of CYP1A, CYP2B, CYP2E, CYP3A, and CYP4A
- Tmax [3, 6]: 1 h
- AUC(0-t) [3, 6]: 9970 ng·h/mL
- Tmax ([3]; female, Crl:CD(SD)IGS BR, rat, in vivo, 8 mg/kg/day, females, 8 mg/kg/day, Day 177): 2 h
- Cmax [3, 7]: 2630 ng/mL
- Tmax [3, 7]: 1 h
- AUC(0-t) [3, 7]: 23800 ng·h/mL
- Cmax [3, 8]: 3500 ng/mL
- Tmax [3, 8]: 1 h
- AUC(0-t) [3, 8]: 29700 ng·h/mL
- Tmax ([3]; female, Crl:CD(SD)IGS BR, rat, in vivo, […], females, […], Day 0): 2 h
- Tmax ([3]; female, Crl:CD(SD)IGS BR, rat, in vivo, […], females, […], Day 177): 1 h
- AUC(0-t) ([3]; female, Crl:CD(SD)IGS BR, rat, plasma, 8 mg/kg/day, females, 8 mg/kg/day, Day 177): 11100 ng·h/mL
- mean ovary/oviduct weights higher ([3]; females, 25 mg/kg/day): 12%
- mean body weight lower than control ([3]; females, 25 mg/kg/day): 10%
- mean cumulative body weight gain lower ([3]; females, 25 mg/kg/day): 14%
- liver metabolic enzyme induction ([3]; male rats, 25 mg/kg/day, 26 weeks): inducer of CYP1A, CYP2B, and CYP2E
- Tmax [3, 9]: 1 h
- AUC(0-t) [3, 9]: 5380 ng·h/mL
- Cmax [3, 10]: 954 ng/mL
- Tmax [3, 10]: 1 h
- Cmax [3, 11]: 2600 ng/mL
- Tmax [3, 11]: 1 h
- AUC(0-t) [3, 11]: 18100 ng·h/mL
- Cmax [3, 12]: 2600 ng/mL
- AUC(0-t) [3, 12]: 17800 ng·h/mL
- Tmax ([3]; male, Crl:CD(SD)IGS BR, rat, in vivo, […], males, […], Day 0): 1 h
- Tmax ([3]; male, Crl:CD(SD)IGS BR, rat, in vivo, […], males, […], Day 177): 1 h
- AUC(0-t) ([3]; male, Crl:CD(SD)IGS BR, rat, plasma, 8 mg/kg/day, males, 8 mg/kg/day, Day 177): 7130 ng·h/mL
- mean testes weights higher ([3]; males, 25 mg/kg/day): 9.5%
- mean body weight lower than control ([3]; males, 25 mg/kg/day): 12%
- mean cumulative body weight gain lower ([3]; males, 25 mg/kg/day): 18%
- NOEL ([3]; oral gavage, 26 weeks): 2.5 mg/kg/day
- bacterial reverse mutation assay outcome [4]: negative in the bacterial reverse mutation assay
- Cmax [5]: 615 ng/mL
- Tmax [5]: 1 h
- AUC(0-t) ([5]; read-out: AUC0-24): 1580 ng·h/mL
